Data from US5393768A, “Leukotriene antagonists” (Eli Lilly and Company, priority 1993, dated 1995).

Legend:
[1] = molecular target: T1, LTD4 evoked contractions of guinea pig ileum (Cavia porcellus, UniProt Q2NNR5); assay: LTD4 antagonism, cumulative concentration-response curves (Schild pA2); type: cell-based; conditions: 30 minute incubation, negative log of KB
T1 construct: A section of terminal ileum was removed, the lumen cleaned, and the tissue divided into 2.5 cm. segments; from tissue; host or cells: terminal ileum of male Hartley guinea pigs
T1 sequence (Q2NNR5 1-340): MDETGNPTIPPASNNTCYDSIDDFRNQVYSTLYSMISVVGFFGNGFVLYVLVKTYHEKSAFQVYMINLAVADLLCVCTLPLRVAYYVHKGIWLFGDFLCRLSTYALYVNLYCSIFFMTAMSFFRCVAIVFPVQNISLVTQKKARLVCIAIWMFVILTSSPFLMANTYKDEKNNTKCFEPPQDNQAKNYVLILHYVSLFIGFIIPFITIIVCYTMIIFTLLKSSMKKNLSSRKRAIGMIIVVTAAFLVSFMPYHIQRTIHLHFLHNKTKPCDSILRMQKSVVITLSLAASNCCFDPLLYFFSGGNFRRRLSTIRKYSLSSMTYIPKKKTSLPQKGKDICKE
Description: For some of the drugs in this series a more detailed analysis of LTD4 antagonism was made. In these experiments, cumulative concentration-response curves were obtained to LTD4 in guinea pig ileum and trachea. This was followed by a 30 minute incubation with various concentrations of the experimental drug. The concentration response curve to LTD4 was then repeated in the presence of the antagonist. Only one concentration of antagonist was used on a single tissue. KB values were calculated by the method of Furchgott [Ann. N.Y. Acad. Sci., 139, 553 (1967)] using the following equation. [formula]
Dose ratio refers to the concentration of agonist required to elicit 50 percent of the maximal response (ED50) in the presence of the antagonist divided by the ED50 in the absence of the antagonist. Calculations were performed with the aid of a computer and a digital plotter.

[2] = test system: LTD4 evoked contractions of guinea pig ileum; assay: Percent inhibition of LTD4 evoked ileal contractions (single submaximal LTD4 response, 5 minute drug exposure); type: cell-based, guinea pig (male, Hartley); conditions: Cavia porcellus; for inhibition at 1 µM: Compound concentration 1 × 10^-6 M; for inhibition at 0.1 µM: Compound concentration 1 × 10^-7 M; for inhibition at 0.3 µM: Compound concentration 3 × 10^-7 M; for inhibition at 3 µM: Compound concentration 3 × 10^-6 M; for inhibition at 0.03 µM: Compound concentration 3 × 10^-8 M; for inhibition at 0.01 µM: 5 min, Compound concentration 1 × 10^-8
Description: Male, Hartley guinea pigs weighing 200-450 grams were killed by decapitation. A section of terminal ileum was removed, the lumen cleaned, and the tissue divided into 2.5 cm. segments. The ilea were mounted in 10 ml. tissue baths containing Krebs-bicarbonate solution of the following composition in mmoles/-liter: KCl, 4.6; CaCl2 ·2H2 O, 1.2; KH2 PO4, 1.2; MgSO4 ·7H2 O, 1.2; NaCl, 118.2; NaHCO3, 24.8; and dextrose, 10.0. The bath fluid was maintained at 37° C. and aerated with 95 percent oxygen and 5 percent CO2. In addition, the buffer contained 1×10^-6 M atropine to reduce ileal spontaneous activity. Isometric measurements were made with a Grass FTO3C force-displacement transducer and recorded on a Grass polygraph as change in grams of force. A passive force of 0.5 g. was applied to the tissues. After an appropriate equilibration period, single submaximal control responses to pure LTD4 were obtained. Following a five minute exposure of the ileum to an experimental drug, the control concentration of LTD was added to the tissue bath. The response of the ileum to LTD4 in the presence of the drug was compared to the response in the absence of the drug.

Compound	pA2 [1]	inhibition at 1 µM [2] [%]	inhibition at 0.1 µM [2] [%]	inhibition at 0.3 µM [2] [%]	Kb [1] [nM]	inhibition at 3 µM [2] [%]	inhibition at 0.03 µM [2] [%]	inhibition at 0.01 µM [2] [%]
CCCc1c(COc2ccc3c(=O)cc(C(=O)O)oc3c2CCC)ccc(C(C)=O)c1O [Example 10, 7-(4-Acetyl-3-hydroxy-2-propylbenzyloxy)-4-oxo-8-propyl-4H-1-benzopyran-2-carboxylic acid]	7.42	97	62	86	–	–	–	–
CCCc1c(COc2ccc(C(=O)O)cc2)ccc(C(C)=O)c1O [Example 11, 4-(4-Acetyl-3-hydroxy-2-propylbenzyloxy)benzoic acid]	–	75	–	–	234	94	–	–
CCCc1c(COc2ccc(CC(=O)O)cc2)ccc(C(C)=O)c1O [Example 12, 4-(4-Acetyl-3-hydroxy-2-propylbenzyloxy)phenylacetic acid]	–	91	66	77	60.3	–	37	–
CCCc1c(COc2ccc(C(=O)O)c(O)c2)ccc(C(C)=O)c1O [Example 13, 4-(4-Acetyl-3-hydroxy-2-propylbenzyloxy)-2-hydroxybenzoic acid]	–	97	69	85	26.9	–	59	30
CCCc1c(COc2cccc(C(=O)O)c2)ccc(C(C)=O)c1O [Example 14, 3-(4-Acetyl-3-hydroxy-2-propylbenzyloxy)benzoic acid]	–	31	–	–	1780	67	–	–
CCCc1c(COc2ccc(CCC(=O)O)cc2)ccc(C(C)=O)c1O [Example 15, 3-[4-(4-Acetyl-3-hydroxy-2-propylbenzyloxy)phenyl]propionic acid]	–	79	59	76	26.3	–	–	–
CCCc1c(COc2ccc(OCC(=O)O)cc2)ccc(C(C)=O)c1O [Example 16, 4-(4-Acetyl-3-hydroxy-2-propylbenzyloxy)phenoxyacetic acid]	–	88	54	88	87.1	–	–	–
CCCc1c(COc2ccc(C(=O)O)cc2)ccc(C(=O)c2ccccc2)c1O [Example 17, 4-(4-Benzoyl-3-hydroxy-2-propylbenzyloxy)benzoic acid]	–	5	–	–	4470	35	–	–
CCCCC(=O)c1ccc(COc2ccc(CC(=O)O)cc2)c(CCC)c1O [Example 18, 4-(4-Pentanoyl-3-hydroxy-2-propylbenzyloxy)phenylacetic acid]	–	21	–	–	2090	65	–	–
CCCc1c(COc2ccc(-c3nnn[nH]3)cc2)ccc(C(C)=O)c1O [Example 32, 5-[4-(4-Acetyl-3-hydroxy-2-propylbenzyloxy)phenyl]tetrazole]	–	94	83	94	7.76	–	–	–
CCCc1c(COc2ccc(Cc3nnn[nH]3)cc2)ccc(C(C)=O)c1O [Example 33, 5-[4-(4-Acetyl-3-hydroxy-2-propylbenzyloxy)benzyl]-tetrazole]	–	100	92	94	7.59	–	81	31
CCCc1c(COc2ccc(-c3nnn[nH]3)c(O)c2)ccc(C(C)=O)c1O [Example 34, 5-[4-(4-Acetyl-3-hydroxy-2-propylbenzyloxy)-2-hydroxyphenyl]-tetrazole]	–	–	97	98	8.71	–	80	50
CCCc1c(COc2ccc(CCc3nnn[nH]3)cc2)ccc(C(C)=O)c1O [Example 35, 5-[2-(4-[4-Acetyl-3-hydroxy-2-propylbenzyloxy]phenyl)ethyl]-tetrazole]	–	–	84	90	8.32	–	63	–
CCCc1c(COc2ccc(C(C)c3nnn[nH]3)cc2)ccc(C(C)=O)c1O (centres unmarked) [Example 36, 5-[1-(4-[4-Acetyl-3-hydroxy-2-propylbenzyloxy]phenyl)ethyl]-tetrazole]	–	94	89	90	12.6	–	70	44
CCCc1c(COc2ccc(C(C)(C)c3nnn[nH]3)cc2)ccc(C(C)=O)c1O [Example 37, 5-[4-(4-Acetyl-3-hydroxy-2-propylbenzyloxy)-α,α-dimethylbenzyl]-tetrazole]	–	–	81	90	17.4	–	56	–
CCCc1c(CSCc2ccc(-c3nnn[nH]3)cc2)ccc(C(C)=O)c1O [Example 38, 5-[4-(4-Acetyl-3-hydroxy-2-propylbenzylthiomethyl)phenyl]-tetrazole]	–	–	29	51	316	–	–	–
CC(=O)c1ccc(COc2ccc(-c3nnn[nH]3)cc2)c(C)c1O [Example 39, 5-[4-(4-Acetyl-3-hydroxy-2-methylbenzyloxy)phenyl]-tetrazole]	–	90	–	70	91.2	–	–	–
CCCc1c(CSc2ccc(-c3nnn[nH]3)cc2)ccc(C(C)=O)c1O [Example 40, 5-[4-(4 -Acetyl-3-hydroxy-2-propylbenzylthio)phenyl]-tetrazole]	–	–	79	–	20	–	58	–
CCCc1c(COc2ccc3cc(-c4nn[nH]n4)ccc3c2)ccc(C(C)=O)c1O [Example 41, 5-[2-(6-[4-Acetyl-3-hydroxy-2-propylbenzyloxy]naphthyl)]-tetrazole]	–	–	90	–	12.3	–	–	46
CC(=O)c1ccc(COc2ccc(Cc3nnn[nH]3)cc2)c(CC(C)C)c1O [Example 42, 5-(4-[4-Acetyl-3-hydroxy-2-(2-methylpropyl)benzyloxy]benzyl)-tetrazole]	–	–	86	88	20	–	60	34
CCCc1c(CNc2ccc(Cc3nnn[nH]3)cc2)ccc(C(C)=O)c1O [Example 43, 5-[4-(4-Acetyl-3-hydroxy-2-propylbenzylamino)benzyl]tetrazole]	–	–	77	–	31.6	–	49	–
CCc1c(COc2ccc(Cc3nnn[nH]3)cc2)ccc(C(C)=O)c1O [Example 44, 5-[4-(4-Acetyl-3-hydroxy-2-ethylbenzyloxy)benzyl)-tetrazole]	–	–	88	–	12.6	–	78	41
CCCc1c(C=Cc2ccc(-c3nn[nH]n3)cc2)ccc(C(C)=O)c1O [Example 45, 5-[4-(2-[4-Acetyl-3-hydroxy-2-propylphenyl]ethenyl)phenyl]-tetrazole]	–	74	–	57	186	–	–	–
CCCc1c(CNc2ccc(C(=O)O)cc2)ccc(C(C)=O)c1O [Example 47, 4-(4-Acetyl-3-hydroxy-2-propylbenzylamino)benzoic acid]	–	70	–	36	490	–	–	–
CCCc1c(COCCCCc2nnn[nH]2)ccc(C(C)=O)c1O [Example 49, 5-[4-(4-Acetyl-3-hydroxy-2-propylbenzyloxy)butyl]-tetrazole]	–	64	–	36	550	–	–	–
CCCc1c(COCCOc2ccc(-c3nnn[nH]3)cc2)ccc(C(C)=O)c1O [Example 52, 5-(4-[2-(4-Acetyl-3-hydroxy-2-propylbenzyloxy)ethoxy]phenyl)-tetrazole]	–	–	67	83	49	–	39	–
